From patent US20070128217A1 (priority 2003, published 2007)

Tests used:
[1] = system: antibodies in sera from SARS patients (sera 1a, 1b, 2, 6, 37, 62, London, SARS-yellow, SARS-green); type: binding, human; design: Binding of serum 6 to linear peptides of protein X1 of SARS-CoV Urbani / Binding of serum 37 to linear peptides of protein X1 of SARS-CoV Urbani / Binding of serum 6 to looped/cyclic peptide (PEPSCAN-ELISA) / Binding of serum 37 to looped/cyclic peptide (PEPSCAN-ELISA) / Binding of serum 37 to looped/cyclic peptides of protein X1 of SARS-CoV Urbani / Binding of serum 6 to linear peptides of protein X2 / Binding of serum 37 to linear peptides of protein X2 / Binding of serum 37 to looped/cyclic peptides of protein X2 of SARS-CoV Urbani / Binding of serum 6 to linear peptides of protein M of SARS-CoV Urbani / Binding of serum 37 to linear peptides of protein M of SARS-CoV Urbani / Binding of serum 6 to looped/cyclic peptides of protein M of SARS-CoV Urbani / Binding of serum 37 to looped/cyclic peptides of protein M of SARS-CoV Urbani / Binding of serum 6 to linear peptides of protein X3 of SARS-CoV Urbani / Binding of serum 37 to linear peptides of protein X3 of SARS-CoV Urbani / Binding of serum 37 to looped/cyclic peptides of protein X3 of SARS-CoV Urbani / Binding of serum 6 to linear peptides of protein X4 of SARS-CoV Urbani / Binding of serum 37 to linear peptides of protein X4 of SARS-CoV Urbani / Binding of serum 37 to looped/cyclic peptides of protein X4 of SARS-CoV Urbani / Binding of serum 6 to linear peptides of protein X5 of SARS-CoV Urbani / Binding of serum 37 to linear peptides of protein X5 of SARS-CoV Urbani / Binding of serum 37 to looped/cyclic peptides of protein X5 of SARS-CoV Urbani / Binding of serum 6 to linear peptides of protein N of SARS-CoV Urbani / Binding of serum 37 to linear peptides of protein N of SARS-CoV Urbani / Binding of serum 6 to linear peptide (PEPSCAN-ELISA) / Binding of serum 1a to looped/cyclic peptides of protein N of SARS-CoV Urbani / Binding of serum 1b to looped/cyclic peptides of protein N of SARS-CoV Urbani / Binding of serum 2 to looped/cyclic peptides of protein N of SARS-CoV Urbani / Binding of serum 6 to looped/cyclic peptides of protein N of SARS-CoV Urbani / Binding of serum 37 to looped/cyclic peptides of protein N of SARS-CoV Urbani / Binding of serum 62 to looped/cyclic peptides of protein N of SARS-CoV Urbani / Binding of serum London to looped/cyclic peptides of protein N of SARS-CoV Urbani / Binding of serum SARS-green to looped/cyclic peptides of protein N of SARS-CoV Urbani: unit not given here
[2] = system: control sera (pooled serum of ten healthy LUMC hospital workers; commercial negative donor pooled serum from the Dutch bloodbank); type: binding, human; design: Binding of Control serum LUMC to linear peptides / Binding of Control serum Blood-bank to linear peptides / Binding of Control serum LUMC to looped peptides / Binding of Control Serum Blood-Bank to Looped peptides / Binding of Control serum LUMC to linear peptides of the protein M of SARS-CoV Urbani / Binding of Control serum Blood-bank to linear peptides of the protein M of SARS-CoV Urbani / Binding of Control serum LUMC to looped peptides of the protein M of SARS-CoV Urbani / Binding of Control Serum Blood-Bank to Looped peptides of the protein M of SARS-CoV Urbani: unit not given here
[3] = system: rabbit serum obtained by immunizing a rabbit with the SARS-CoV strain Frankfurt 1; type: binding; design: Binding of a rabbit serum to linear peptides / Binding of a rabbit serum to looped peptides / Rabbit serum linear peptides / Rabbit serum looped peptides / Binding of a rabbit serum to linear peptides of protein N of SARS-CoV Urbani (Rabbit serum linear peptides) / Binding of a rabbit serum to looped/cyclic peptides of protein N of SARS-CoV Urbani (Rabbit serum looped peptides): unit not given here

IVAALVFLILCFTIK
Binding of serum 1a to linear peptides of protein X4 of SARS-CoV Urbani [1]: 0.6
Binding of serum 1a to looped/cyclic peptides of protein X4 of SARS-CoV Urbani [1]: 0.7
Binding of serum 1b to linear peptides of protein X4 of SARS-CoV Urbani [1]: 0.6
Binding of serum 1b to looped/cyclic peptides of protein X4 of SARS-CoV Urbani [1]: 0.4
Binding of serum 2 to linear peptides of protein X4 of SARS-CoV Urbani [1]: 0.4
Binding of serum 2 to looped/cyclic peptides of protein X4 of SARS-CoV Urbani [1]: 0.6
Binding of serum 6 to linear peptides of protein X4 of SARS-CoV Urbani [1]: 0.5
Binding of serum 6 to looped/cyclic peptides of protein X4 of SARS-CoV Urbani [1]: 1.4
Binding of serum 37 to linear peptides of protein X4 of SARS-CoV Urbani [1]: 0.7
Binding of serum 37 to looped/cyclic peptides of protein X4 of SARS-CoV Urbani [1]: 0.7
Binding of serum 62 to linear peptides of protein X4 of SARS-CoV Urbani [1]: 0.7
Binding of serum 62 to looped/cyclic peptides of protein X4 of SARS-CoV Urbani [1]: 0.7
Binding of serum London to linear peptides of protein X4 of SARS-CoV Urbani [1]: 0.7
Binding of serum London to looped/cyclic peptides of protein X4 of SARS-CoV Urbani [1]: 3.0
Binding of serum SARS-green to linear peptides of protein X4 of SARS-CoV Urbani [1]: 0.5
Binding of serum SARS-green to looped/cyclic peptides of protein X4 of SARS-CoV Urbani [1]: 0.5
Binding of serum SARS-yellow to linear peptides of protein X4 of SARS-CoV Urbani [1]: 0.6
Binding of serum SARS-yellow to looped/cyclic peptides of protein X4 of SARS-CoV Urbani [1]: 0.7
Binding of Control Serum Blood-Bank to Looped peptides [2]: 0.8
Binding of Control serum Blood-bank to linear peptides [2]: 0.6
Binding of Control serum LUMC to linear peptides [2]: 0.5
Binding of Control serum LUMC to looped peptides [2]: 0.7
Rabbit serum linear peptides [3]: 0.4
Rabbit serum looped peptides [3]: 0.6

TDSGFAAYNRYRIGN
Binding of serum 1a to linear peptides of protein M of SARS-CoV Urbani [1]: 0.6
Binding of serum 1a to looped/cyclic peptides of protein M of SARS-CoV Urbani [1]: 0.7
Binding of serum 1b to linear peptides of protein M of SARS-CoV Urbani [1]: 0.4
Binding of serum 1b to looped/cyclic peptides of protein M of SARS-CoV Urbani [1]: 0.5
Binding of serum 2 to linear peptides of protein M of SARS-CoV Urbani [1]: 0.5
Binding of serum 2 to looped/cyclic peptides of protein M of SARS-CoV Urbani [1]: 0.6
Binding of serum 6 to linear peptides of protein M of SARS-CoV Urbani [1]: 0.4
Binding of serum 6 to looped/cyclic peptides of protein M of SARS-CoV Urbani [1]: 0.9
Binding of serum 37 to linear peptides of protein M of SARS-CoV Urbani [1]: 0.4
Binding of serum 37 to looped/cyclic peptides of protein M of SARS-CoV Urbani [1]: 0.7
Binding of serum 62 to linear peptides of protein M of SARS-CoV Urbani [1]: 0.6
Binding of serum 62 to looped/cyclic peptides of protein M of SARS-CoV Urbani [1]: 0.7
Binding of serum London to linear peptides of protein M of SARS-CoV Urbani [1]: 0.3
Binding of serum London to looped/cyclic peptides of protein M of SARS-CoV Urbani [1]: 0.2
Binding of serum SARS-green to linear peptides of protein M of SARS-CoV Urbani [1]: 0.3
Binding of serum SARS-green to looped/cyclic peptides of protein M of SARS-CoV Urbani [1]: 0.1
Binding of serum SARS-yellow to linear peptides of protein M of SARS-CoV Urbani [1]: 0.0
Binding of serum SARS-yellow to looped/cyclic peptides of protein M of SARS-CoV Urbani [1]: 0.8
Binding of Control Serum Blood-Bank to Looped peptides of the protein M of SARS-CoV Urbani [2]: 0.6
Binding of Control serum Blood-bank to linear peptides of the protein M of SARS-CoV Urbani [2]: 0.7
Binding of Control serum LUMC to linear peptides of the protein M of SARS-CoV Urbani [2]: 0.3
Binding of Control serum LUMC to looped peptides of the protein M of SARS-CoV Urbani [2]: 0.7
Rabbit serum linear peptides [3]: 0.0
Rabbit serum looped peptides [3]: 0.5

LVDFQVTIAEILIII
Binding of serum 1a to linear peptides of protein X3 of SARS-CoV Urbani [1]: 0.8
Binding of serum 1a to looped/cyclic peptides of protein X3 of SARS-CoV Urbani [1]: 0.7
Binding of serum 1b to linear peptides of protein X3 of SARS-CoV Urbani [1]: 0.6
Binding of serum 1b to looped/cyclic peptides of protein X3 of SARS-CoV Urbani [1]: 0.4
Binding of serum 2 to linear peptides of protein X3 of SARS-CoV Urbani [1]: 0.7
Binding of serum 2 to looped/cyclic peptides of protein X3 of SARS-CoV Urbani [1]: 0.6
Binding of serum 6 to linear peptides of protein X3 of SARS-CoV Urbani [1]: 0.5
Binding of serum 6 to looped/cyclic peptides of protein X3 of SARS-CoV Urbani [1]: 0.3
Binding of serum 37 to linear peptides of protein X3 of SARS-CoV Urbani [1]: 0.6
Binding of serum 37 to looped/cyclic peptides of protein X3 of SARS-CoV Urbani [1]: 0.5
Binding of serum 62 to linear peptides of protein X3 of SARS-CoV Urbani [1]: 0.6
Binding of serum 62 to looped/cyclic peptides of protein X3 of SARS-CoV Urbani [1]: 0.6
Binding of serum London to linear peptides of protein X3 of SARS-CoV Urbani [1]: 0.6
Binding of serum London to looped/cyclic peptides of protein X3 of SARS-CoV Urbani [1]: 0.2
Binding of serum SARS-green to linear peptides of protein X3 of SARS-CoV Urbani [1]: 0.4
Binding of serum SARS-green to looped/cyclic peptides of protein X3 of SARS-CoV Urbani [1]: 0.2
Binding of serum SARS-yellow to linear peptides of protein X3 of SARS-CoV Urbani [1]: 0.7
Binding of serum SARS-yellow to looped/cyclic peptides of protein X3 of SARS-CoV Urbani [1]: 0.6
Binding of Control Serum Blood-Bank to Looped peptides of the protein X3 of SARS-CoV Urbani [2]: 0.6
Binding of Control serum Blood-bank to linear peptides of the protein X3 of SARS-CoV Urbani [2]: 0.8
Binding of Control serum LUMC to linear peptides of the protein X3 of SARS-CoV Urbani [2]: 0.9
Binding of Control serum LUMC to looped peptides of the protein X3 of SARS-CoV Urbani [2]: 0.7
Rabbit serum linear peptides [3]: 0.3
Rabbit serum looped peptides [3]: 0.3
